Reference: PMC9864008, “Novel Black Seed Polysaccharide Extract-g-Poly (Acrylate) pH-Responsive Hydrogel Nanocomposites for Safe Oral Insulin Delivery: Development, In Vitro, In Vivo and Toxicological Evaluation” (Pharmaceutics, 2022)

Key:
[1] = rabbit, in vivo
Procedure: After diabetes induction, the rabbits were placed into 5 groups (n = 6) randomly. The first group was orally administered with ground Ins-BA hydrogel (10 IU/kg) by an oral gavage needle with 5 mL of water to ensure complete dose administration. The second group was given orally the ground Ins-Mmt-BA hydrogel NC (10 IU/kg). The third group, acting as a positive control, was subcutaneously (SC) injected with standard Humulin-R® insulin (5 IU/kg). The fourth group was orally administered with insulin solution (10 IU/kg). The fifth group, acting as a negative control was administered with blank hydrogel. Blood samples were taken at specified intervals (0, 1, 2, 3, 4, 6, 8, 10, 12, 16, 20, 22 and 24 h) from the jugular vein and collected in EDTA containing sample collection tubes. The blood samples were then centrifuged at 3500 rpm for 15 min and separated plasma samples were stored at –20 °C for further detection of insulin by the HPLC method. At the same intervals, blood samples were also checked for blood glucose levels by a glucometer for observing the pharmacodynamic effect of the administered dosage forms [8].
For pharmacokinetic evaluation, a previously developed HPLC method for insulin detection in plasma was used with slight modifications [37]. The HPLC system (Hitachi, Tokyo, Japan) comprising a Gilson delivery pump with a 6-valved sample injection port fitted with a 20 µL sample loop, A UV-visible detector, thermostat column and chromato-integrator were used for sample analysis. The RP-C18 (150 × 4.60 mm ID, 5 µm) analytical column (Phenomenex, Torrance, CA, USA) was used. The mobile phase was prepared by 0.2 M Na2SO4 solution with pH adjusted to 2.3 with orthophosphoric acid mixed with acetonitrile (74:26) and filtered through 0.5 µm membrane filters and sonicated for 10 min to remove dissolved gas bubbles. The stock solution of insulin at 140 µg/mL strength was made in PBS. The serial dilutions of insulin solution (3.5 µg/mL to 140 µg/mL) after filtering through a 0.2 µm membrane filter were injected into a chromatographic column to find the linearity curve to develop a method for insulin detection. The linearity curve with the same serial dilutions of insulin in plasma was also determined. For sample preparation from collected plasma, 200 µL of thawed plasma (collected at different intervals) was mixed with 800 µL of n-hexane:dichloromethane (1:1). The mixture was centrifuged for 10 min at 3500 rpm (Hitachi Zentrifugen EBA 20, Hitachi Ltd., Tokyo, Japan). The supernatant with extracted insulin was used after filtering through a 0.22 µm membrane filter (Sartorius, Göttingen, Germany) for injection into the HPLC system. […]

[2] = test system: diabetic male albino rabbits; assay: In vivo pharmacodynamics: blood glucose level in alloxan-induced diabetic rabbits; parameters: species or system rabbit; conditions: for Blood glucose level (% of initial, % BGL) at maximum decrease: n = 6, oral 10 IU/kg or SC 5 IU/kg, SC standard within first 3 h, Ins-BA hydrogel at 8 h, Ins-Mmt-BA hydrogel NC at 20 h
Procedure: A crossover study was designed to evaluate the insulin intestinal absorption and its release pattern over time from the developed BA hydrogels versus Ins-Mmt-BA hydrogel NCs. For this purpose, under the approval of IREC vide notification number IREC-2020-22, strictly following OECD guidelines, a total of 30 healthy male albino rabbits (≥2 kg weight) were taken. All animals were exposed to 12 h light and darkness cycles for 7 days to acclimatize with ambient atmosphere. For diabetes induction, all rabbits were administered alloxan monohydrate injection (Sigma-Aldrich, Germany) in a single intraperitoneal dose of 150 mg/kg. A 5% glucose solution was administered ad libitum for 24 h to avoid alloxan-induced hypoglycemia. To confirm diabetes induction all, animals’ blood was withdrawn daily from the ear marginal vein for checking blood glucose levels with the help of a glucometer and glucose strips (ACCU-CHEK®, Roche, Basel, Switzerland) for 10 days. Rabbits displaying fasting blood glucose levels higher than 150 mg/dL were considered as diabetic.

[3] = cited from earlier work
Excerpt: Humulin® R U-100 (containing human insulin with the strength 100 units/mL) is a sterile, colourless and aqueous solution formulation. It is a short-acting polypeptide hormone produced by an Escherichia coli strain obtained by using recombinant DNA technology. Firstly, it controls blood sugar by inhibiting hepatic glucose production, and secondly, it stimulates glucose uptake from peripheral skeletal muscles and fat cells. When administered subcutaneously (SC), it starts showing therapeutic response within 30 min and its effect lasts up to 8h, with the dose in the range of 0.05–0.4 units/kg. W ...

[4] = intravenous, dose 0.1–0.2 units/kg
[5] = subcutaneous, dose 0.05–0.4 units/kg

Row | Substance | Cl [1] [mL/h] | Vd [1] [mL] | t1/2 [1] [h] | tmax [1] [h] | Blood glucose level (% of initial, % BGL) at 8 h ([2]; n = 6, SC 5 IU/kg, 8 h interval) [%] | Blood glucose level (% of initial, % BGL) at maximum decrease [2] | Duration of effect after IV administration [3, 4] | Start of pharmacologic effect after IV administration [3, 4] | Duration of effect after SC administration [3, 5] | Start of therapeutic response after SC administration [3, 5] [min]
1 | SC insulin standard: standard Humulin-R human insulin injection, 100 IU/mL, given subcutaneously | 13.361 | 67.326 | 3.493 | 3 | 59.67 | 13.55% | up to 4 h | 10–15 min | up to 8 h | ≤ 30
2 | oral insulin solution: insulin solution administered orally (10 IU/kg) |  |  |  |  |  | no significant decrease in % BGL |  |  |  | 
